From patent publication US12503438B2, “Compounds for the treatment of kinase-dependent disorders” (Exelixis, Inc., priority 2019, dated 2025)

Molecular target: T1, AXL (Homo sapiens, UniProt P30530)
T1 construct: endogenous in cells; host or cells: A-172 glioblastoma cells (ATCC #CRL-1620)
T1 sequence (P30530 26-894): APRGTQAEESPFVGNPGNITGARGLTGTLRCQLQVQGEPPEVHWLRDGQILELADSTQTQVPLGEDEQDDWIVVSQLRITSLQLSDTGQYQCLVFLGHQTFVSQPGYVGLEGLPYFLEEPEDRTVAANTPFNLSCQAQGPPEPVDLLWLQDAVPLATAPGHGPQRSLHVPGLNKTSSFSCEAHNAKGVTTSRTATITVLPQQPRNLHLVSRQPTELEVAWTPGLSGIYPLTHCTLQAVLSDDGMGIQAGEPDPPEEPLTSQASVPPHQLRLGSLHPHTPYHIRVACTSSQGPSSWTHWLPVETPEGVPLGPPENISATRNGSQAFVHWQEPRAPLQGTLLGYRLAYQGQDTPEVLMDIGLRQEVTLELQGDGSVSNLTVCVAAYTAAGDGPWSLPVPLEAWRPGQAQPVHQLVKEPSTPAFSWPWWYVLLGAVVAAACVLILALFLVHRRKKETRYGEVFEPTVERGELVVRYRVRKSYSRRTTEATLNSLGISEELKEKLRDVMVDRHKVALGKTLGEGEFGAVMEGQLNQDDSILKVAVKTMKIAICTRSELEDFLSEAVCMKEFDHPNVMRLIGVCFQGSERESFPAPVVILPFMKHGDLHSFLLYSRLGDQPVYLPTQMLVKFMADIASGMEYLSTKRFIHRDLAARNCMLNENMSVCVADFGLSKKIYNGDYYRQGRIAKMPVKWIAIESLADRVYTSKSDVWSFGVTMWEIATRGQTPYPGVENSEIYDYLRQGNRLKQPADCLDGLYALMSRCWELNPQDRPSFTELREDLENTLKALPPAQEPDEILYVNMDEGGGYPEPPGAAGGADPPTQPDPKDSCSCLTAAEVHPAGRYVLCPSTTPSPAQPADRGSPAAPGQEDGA
Experiment: AXL autophosphorylation ELISA in A-172 cells
Type: cell-based
Conditions: cellular activity, Gas6-stimulated, phospho-AXL ELISA
Experimental: A-172 glioblastoma cells (ATCC #CRL-1620) were seeded at 2.5×10^5 cells/well onto 24-well plates (Greiner #662165), in DMEM (Thermo Fisher #11995-040) containing 10% FBS (Thermo Fisher #26140-079), 1% MEM NEAA (Thermo Fisher #11140-050), 1% GlutaMax (Thermo Fisher #35050-061) and 1% Penicillin Streptomycin (Thermo Fisher #15140-122). A-172 cells were incubated at 37° C., 5% CO2 for 24 h and then starved for 24 h in serum-free medium. Test compounds were serially diluted to produce an 8-point dose curve in fresh serum-free medium to a final concentration of 0.3% DMSO (vehicle) and added to the cells and incubated for 1 h. Cells were then stimulated with 1 μg/mL recombinant human Gas6 (R&D Systems #885-GSB-500) for 15 min, washed with cold PBS and immediately lysed with 150 μL of cold 1× lysis buffer [20 mM Tris, 137 mM sodium chloride, 2 mM EDTA, 10% glycerol, 1% NP-40 alternative, 1 mM activated sodium orthovanadate, 1 mM PefaBloc SC (Sigma-Aldrich #11429868001), protease/phosphatase inhibitor tablet (Thermo Fisher #A32959)]. Lysates were collected and 100 μL/well added into the human phospho-AXL DuoSet IC ELISA (R&D Systems #DYC2228-2). Assay was performed according to manufacturer's instructions and sample phospho-AXL concentrations were extrapolated using human phospho-AXL control (R&D Systems #841645) as a standard. Positive control wells (100% activity) contained Gas6-stimulated, DMSO-treated cell lysates. Negative control wells (0% activity) contained Gas6-stimulated, reference inhibitor-treated cell lysates. IC50 values were calculated by nonlinear regression analysis using a 4-parameter logistic curve fit in ActivityBase XE (IDBS).

| IC50 [nM] | SMILES |
| --- | --- |
| > 300 | Cc1cncc(-c2ccc3c(Oc4ccc(NC(=O)C5(C(=O)Nc6ccc(F)cc6)CC5)cc4)ccnc3c2)c1 [Compound 46, 1-N′-(4-Fluorophenyl)-1-N-[4-[7-(5-methylpyridin-3-yl)quinolin-4-yl]oxyphenyl]cyclopropane-1,1-dicarboxamide] |
| 10 to 100 | Cc1cc2c(Oc3cc(Cl)c(NC(=O)C4(C(=O)Nc5ccc(F)cc5)CC4)cc3F)ccnc2cc1-c1cnn(C)c1 [Compound 112, 1-N′-[2-Chloro-5-fluoro-4-[6-methyl-7-(1-methylpyrazol-4-yl)quinolin-4-yl]oxyphenyl]-1-N-(4-fluorophenyl)cyclopropane-1,1-dicarboxamide] |
| 10 to 100 | Cc1cc(-c2ccc3c(Oc4ccc(NC(=O)C5(C(=O)Nc6ccc(F)cc6)CC5)cc4)ccnc3c2)ccn1 [Compound 30, 1-N′-(4-Fluorophenyl)-1-N-[4-[7-(2-methylpyridin-4-yl)quinolin-4-yl]oxyphenyl]cyclopropane-1,1-dicarboxamide] |
| 10 to 100 | N#Cc1ccc(-c2ccc3c(Oc4ccc(NC(=O)C5(C(=O)Nc6ccc(F)cc6)CC5)cc4)ccnc3c2)cn1 [Compound 42, 1-N-[4-[7-(6-Cyanopyridin-3-yl)quinolin-4-yl]oxyphenyl]-1-N′-(4-fluorophenyl)cyclopropane-1,1-dicarboxamide] |
| 100 to 300 | O=C(Nc1ccc(F)cc1)C1(C(=O)Nc2ccc(Oc3ccnc4cc(-c5cccnc5O)ccc34)cc2)CC1 [Compound 52, 1-N′-(4-Fluorophenyl)-1-N-[4-[7-(2-hydroxypyridin-3-yl)quinolin-4-yl]oxyphenyl]cyclopropane-1,1-dicarboxamide] |
| ≤ 10 | O=C(Nc1ccc(F)cc1)C1(C(=O)Nc2ccc(Oc3ccnc4cc(-c5ccc[n+]([O-])c5)ccc34)cc2)CC1 [Compound 109, 1-N′-(4-Fluorophenyl)-1-N-[4-[7-(1-oxidopyridin-1-ium-3-yl)quinolin-4-yl]oxyphenyl]cyclopropane-1,1-dicarboxamide] |
| 10 to 100 | Nc1ccc(-c2ccc3c(Oc4ccc(NC(=O)C5(C(=O)Nc6ccc(F)cc6)CC5)cc4)ccnc3c2)cn1 [Compound 38, 1-N-[4-[7-(6-Aminopyridin-3-yl)quinolin-4-yl]oxyphenyl]-1-N′-(4-fluorophenyl)cyclopropane-1,1-dicarboxamide] |
| ≤ 10 | O=C(Nc1ccc(F)cc1)C1(C(=O)Nc2ccc(Oc3ccnc4cc(-c5ccc(O)nc5)ccc34)cc2)CC1 [Compound 51, 1-N′-(4-Fluorophenyl)-1-N-[4-[7-(6-hydroxypyridin-3-yl)quinolin-4-yl]oxyphenyl]cyclopropane-1,1-dicarboxamide] |
| ≤ 10 | O=C(Nc1ccc(F)cc1)C1(C(=O)Nc2ccc(Oc3ccnc4cc(-c5cnn(C(F)F)c5)ccc34)c(F)c2)CC1 [Compound 123, 1-N′-[4-[7-[1-(Difluoromethyl)pyrazol-4-yl]quinolin-4-yl]oxy-3-fluorophenyl]-1-N-(4-fluorophenyl)cyclopropane-1,1-dicarboxamide] |
| ≤ 10 | Cn1cc(-c2ccc3c(Oc4ccc(NC(=O)C5(C(=O)Nc6ccc(F)cc6)CC5)cc4)ccnc3c2)ccc1=O [Compound 119, 1-N′-(4-Fluorophenyl)-1-N-[4-[7-(1-methyl-6-oxopyridin-3-yl)quinolin-4-yl]oxyphenyl]cyclopropane-1,1-dicarboxamide] |
